From patent EP1984353B1, “AURORA KINASE MODULATORS AND METHOD OF USE” (Amgen, Inc, priority 2006, dated 2007)
Where two headings read alike, the source gives them in different places.

How the values were obtained:
AuroraA-TPX2 = biological target: T1, AuroraA-TPX2 (Homo sapiens, UniProt O14965); experiment: AuroraA-TPX2 Homogeneous Time Resolved Fluorescent (HTRF) kinase assay; type: biochemical; settings: average, read-out: AurA/TP X2_ IC50_IP (Avg)
T1 construct: 20 µL of AuroraA-TPX2 KD GST; GST
T1 sequence (O14965 133-383 limits assumed): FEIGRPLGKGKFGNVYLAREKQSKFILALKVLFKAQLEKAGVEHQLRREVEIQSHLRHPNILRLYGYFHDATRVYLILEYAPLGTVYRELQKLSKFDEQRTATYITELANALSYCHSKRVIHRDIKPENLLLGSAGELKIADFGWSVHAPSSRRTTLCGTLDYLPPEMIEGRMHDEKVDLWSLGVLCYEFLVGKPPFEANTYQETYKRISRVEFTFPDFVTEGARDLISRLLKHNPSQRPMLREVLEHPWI
T1 sequence (Q9ULW0 1-43 partner limits assumed): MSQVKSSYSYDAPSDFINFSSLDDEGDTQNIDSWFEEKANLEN
Outline: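 Aurora-A/TPX2 phosphorylates biotinylated PLK peptide (about 1 µM) with ATP for about 120 min in 60 mM HEPES pH 7.5, 10 mM MgCl2, 2 mM DTT. EDTA quench, overnight equilibration with Eu-anti-phosphoPLK antibody and SA-APC; HTRF read at 615/655 nm after 320 nm excitation.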

AuroraB = biological target: T2, AuroraB (Homo sapiens, UniProt Q96GD4); experiment: AuroraB Homogeneous Time Resolved Fluorescent (HTRF) kinase assay; type: biochemical; settings: average, read-out: AurB_ _IC50_IP (Avg)
T2 construct: 20 µL of AuroraB FL His; His
Outline: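 Full-length His-tagged AuroraB (400 pM) phosphorylates 0.1 µM biotinylated Histone H3 with 23 µM ATP (Km(app)) in HEPES pH 7.5 with Mg/Mn, about 90 min. EDTA-quenched; Eu-anti-phosphoHistoneH3 and SA-APC HTRF, 655/615 nm ratio as phosphorylation.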

[1] = given as numbers, unit inferred

T2 sequence (Q96GD4 whole entry): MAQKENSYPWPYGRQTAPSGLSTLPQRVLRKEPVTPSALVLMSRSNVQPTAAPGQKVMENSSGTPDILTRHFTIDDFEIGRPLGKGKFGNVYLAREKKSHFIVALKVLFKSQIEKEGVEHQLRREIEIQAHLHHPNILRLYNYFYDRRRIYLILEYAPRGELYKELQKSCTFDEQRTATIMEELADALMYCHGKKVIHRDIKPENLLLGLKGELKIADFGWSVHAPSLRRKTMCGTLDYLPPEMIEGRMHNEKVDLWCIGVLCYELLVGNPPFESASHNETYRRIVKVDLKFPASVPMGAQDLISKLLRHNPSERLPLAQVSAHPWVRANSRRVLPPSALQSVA

| Compound | IC50 (AuroraA-TPX2; given as class symbols) [nM] | IC50 (AuroraB; given as class symbols) [nM] | IC50 (AuroraA-TPX2; [1]) [nM] | IC50 (AuroraB; [1]) [nM] |
| --- | --- | --- | --- | --- |
| CC1CN(c2nnc(Nc3ccc(Oc4ncccc4-c4ccnc(N)n4)cc3)c3ccccc23)CCN1C (centres unmarked) [compound 395, N-(4-((3-(2-amino-4-pyrimidinyl)-2-pyridinyl)oxy)phenyl)-4-(3,4-dimethyl-1-piperazinyl)-1-phthalazinamine] | ≤ 100 | ≤ 100 | – | – |
| Cc1ccc(-c2nnc(Nc3ccc(Oc4ncccc4-c4ccnc(N)n4)cc3)c3ccccc23)nc1 [compound 396, N-(4-((3-(2-amino-4-pyrimidinyl)-2-pyridinyl)oxy)phenyl)-4-(5-methyl-2-pyridinyl)-1-phthalazinamine] | – | – | 4.7 | 0.8 |
| Nc1nccc(-c2cccnc2Oc2ccc(Nc3nnc(N4CCN5CCCC5C4)c4ccccc34)cn2)n1 (centres unmarked) [compound 397, N-(6-((3-(2-amino-4-pyrimidinyl)-2-pyridinyl)oxy)-3-pyridinyl)-4-(hexahydropyrrolo[1,2-a]pyrazin-2(1H)-yl)-1-phthalazinamine] | ≤ 100 | ≤ 100 | – | – |
| C[C@@H]1CN(c2nnc(Nc3ccc(Oc4ncccc4-c4ccnc(N)n4)cc3)c3ccccc23)CCN1 [compound 399, N-(4-((3-(2-amino-4-pyrimidinyl)-2-pyridinyl)oxy)phenyl)-4-((3R)-3-methyl-1-piperazinyl)-1-phthalazinamine] | 500 to 2500 | 100 to 500 | – | – |
| Fc1cnc(NCCCN2CCNCC2)nc1-c1cccnc1Oc1ccc(Nc2nnc(-c3ccccc3)c3ccccc23)cc1 [compound 400, N-(4-((3-(5-fluoro-2-((3-(1-piperazinyl)propyl)amino)-4-pyrimidinyl)-2-pyridinyl)oxy)phenyl)-4-phenyl-1-phthalazinamine] | 100 to 500 | ≤ 100 | – | – |
| Nc1nccc(-c2cccnc2Oc2ccc(Nc3nnc(N4CCN5CCC[C@H]5C4)c4ccccc34)cc2)n1 [compound 401, N-(4-((3-(2-amino-4-pyrimidinyl)-2-pyridinyl)oxy)phenyl)-4-((8aS)-hexahydropyrrolo[1,2-a]pyrazin-2(1H)-yl)-1-phthalazinamine] | ≤ 100 | ≤ 100 | – | – |
| Nc1nccc(-c2cccnc2Oc2ccc(Nc3nnc(N4CCN5CCC[C@H]5C4)c4ccccc34)cn2)n1 [compound 402, N-(6-((3-(2-amino-4-pyrimidinyl)-2-pyridinyl)oxy)-3-pyridinyl)-4-((8aS)-hexahydropyrrolo[1,2-a]pyrazin-2(1H)-yl)-1-phthalazinamine] | ≤ 100 | ≤ 100 | – | – |
| Fc1cnc(NCCCN2CCCCC2)nc1-c1cccnc1Oc1ccc(Nc2nnc(-c3ccccc3)c3ccccc23)cc1 [compound 403, N-(4-((3-(5-fluoro-2-((3-(1-piperidinyl)propyl)amino)-4-pyrimidinyl)-2-pyridinyl)oxy)phenyl)-4-phenyl-1-phthalazinamine] | ≤ 100 | ≤ 100 | – | – |
| Cc1ccnc(-c2nnc(Nc3ccc(Oc4ncccc4-c4ccnc(N)n4)cc3)c3ccccc23)c1 [compound 404, N-(4-((3-(2-amino-4-pyrimidinyl)-2-pyridinyl)oxy)phenyl)-4-(4-methyl-2-pyridinyl)-1-phthalazinamine] | 100 to 500 | ≤ 100 | – | – |
| Cc1ccnc(-c2nnc(Nc3ccc(Oc4ncccc4-c4ccnc(N)n4)nc3)c3ccccc23)c1 [compound 405, N-(6-((3-(2-amino-4-pyrimidinyl)-2-pyridinyl)oxy)-3-pyridinyl)-4-(4-methyl-2-pyridinyl)-1-phthalazinamine] | 100 to 500 | ≤ 100 | – | – |
| Nc1nccc(-c2cccnc2Oc2ccc(Nc3nnc(N4CCN5CCCCC5C4)c4ccccc34)cc2)n1 (centres unmarked) [compound 406, N-(4-((3-(2-amino-4-pyrimidinyl)-2-pyridinyl)oxy)phenyl)-4-(octahydro-2H-pyrido[1,2-a]pyrazin-2-yl)-1-phthalazinamine] | ≤ 100 | ≤ 100 | – | – |
| Cc1ccnn1-c1nnc(Nc2ccc(Oc3ncccc3-c3ccnc(N)n3)cc2)c2ccccc12 [compound 407, N-(4-((3-(2-amino-4-pyrimidinyl)-2-pyridinyl)oxy)phenyl)-4-(5-methyl-1H-pyrazol-1-yl)-1-phthalazinamine] | ≤ 100 | ≤ 100 | – | – |
| Cc1ccn(-c2nnc(Nc3ccc(Oc4ncccc4-c4ccnc(N)n4)cc3)c3ccccc23)n1 [compound 408, N-(4-((3-(2-amino-4-pyrimidinyl)-2-pyridinyl)oxy)phenyl)-4-(3-methyl-1H-pyrazol-1-yl)-1-phthalazinamine] | ≤ 100 | ≤ 100 | – | – |
| Cc1ccnc(-c2nnc(Nc3ccc(Oc4ncccc4-c4ccnc(NCCCN5CCN(C)CC5)n4)cc3)c3ccccc23)c1 [compound 409, N-(4-((3-(2-((3-(4-methyl-1-piperazinyl)propyl)amino)-4-pyrimidinyl)-2-pyridinyl)oxy)phenyl)-4-(4-methyl-2-pyridinyl)-1-phthalazinamine] | 100 to 500 | ≤ 100 | – | – |
| COc1cccc(-c2nnc(Nc3ccc(Oc4ncccc4-c4ccnc(NCCCN5CCN(C)CC5)n4)cc3)c3ccccc23)n1 [compound 410, 4-(6-(methyloxy)-2-pyridinyl)-N-(4-((3-(2-((3-(4-methyl-1-piperazinyl)propyl)amino)-4-pyrimidinyl)-2-pyridinyl)oxy)phenyl)-1-phthalazinamine] | ≤ 100 | ≤ 100 | – | – |
| C[C@H]1CN(CCCNc2nccc(-c3cccnc3Oc3ccc(Nc4nnc(-c5ccccc5)c5ccccc45)cc3)n2)CCN1 [compound 411, N-(4-((3-(2-((3-((3S)-3-methyl-1-piperazinyl)propyl)amino)-4-pyrimidinyl)-2-pyridinyl)oxy)phenyl)-4-phenyl-1-phthalazinamine] | ≤ 100 | ≤ 100 | – | – |
| Cc1ccnc(-c2nnc(Nc3ccc(Oc4ncccc4-c4ccnc(NCCCN5CCOCC5)n4)cc3)c3ccccc23)c1 [compound 412, 4-(4-methyl-2-pyridinyl)-N-(4-((3-(2-((3-(4-morpholinyl)propyl)amino)-4-pyrimidinyl)-2-pyridinyl)oxy)phenyl)-1-phthalazinamine] | 100 to 500 | ≤ 100 | – | – |
| CCc1cc(-c2ccccc2)nnc1Nc1ccc(Oc2ncccc2-c2ccnc(NCCCN3CCN(C)CC3)n2)nc1 [compound 449, 4-ethyl-N-(6-((3-(2-((3-(4-methyl-1-piperazinyl)propyl)amino)-4-pyrimidinyl)-2-pyridinyl)oxy)-3-pyridinyl)-6-phenyl-3-pyridazinamine] | ≤ 100 | ≤ 100 | – | – |
| CCc1cc(-c2ccccc2)nnc1Nc1ccc(Oc2ncccc2-c2ccnc(NCCCN3CCCCC3)n2)nc1 [compound 450, 4-ethyl-6-phenyl-N-(6-((3-(2-((3-(1-piperidinyl)propyl)amino)-4-pyrimidinyl)-2-pyridinyl)oxy)-3-pyridinyl)-3-pyridazinamine] | 500 to 2500 | ≤ 100 | – | – |
| CCc1cc(-c2ccccc2)nnc1Nc1ccc(Oc2ncccc2-c2ccnc(NCCCN3CCNCC3)n2)nc1 [compound 451, 4-ethyl-6-phenyl-N-(6-((3-(2-((3-(1-piperazinyl)propyl)amino)-4-pyrimidinyl)-2-pyridinyl)oxy)-3-pyridinyl)-3-pyridazinamine] | 100 to 500 | ≤ 100 | – | – |
| FC1CCCN(CCCNc2nccc(-c3cccnc3Oc3ccc(Nc4nnc(-c5ccccc5)c5ccccc45)cc3)n2)C1 (centres unmarked) [compound 452, N-(4-((3-(2-((3-(3-fluoro-1-ptperidinyl)propyl)amino)-4-pyrimidinyl)-2-pyridinyl)oxy)phenyl)-4-phenyl-1-phthalazinamine] | ≤ 100 | ≤ 100 | – | – |
| FC1(F)CCCN(CCCNc2nccc(-c3cccnc3Oc3ccc(Nc4nnc(-c5ccccc5)c5ccccc45)cc3)n2)C1 [compound 453, N-(4-((3-(2-((3-(3,3-difluoro-1-piperidinyl)propyl)amino)-4-pyrimidinyl)-2-pyridinyl)oxy)phenyl)-4-phenyl-1-phthalazinamine] | ≤ 100 | ≤ 100 | – | – |
| COc1cccc(-c2nnc(Nc3ccc(Oc4ncccc4-c4ccnc(NCCCN5CCCCC5)n4)cc3)c3ccccc23)n1 [compound 454, 4-(6-(methyloxy)-2-pyridinyl)-N-(4-((3-(2-((3-(1-piperidinyl)propyl)amino)-4-pyrimidinyl)-2-pyridinyl)oxy)phenyl)-1-phthalazinamine] | ≤ 100 | ≤ 100 | – | – |
| COc1cccc(-c2nnc(Nc3ccc(Oc4ncccc4-c4ccnc(NCCCN5CCCC5)n4)cc3)c3ccccc23)n1 [compound 455, 4-(6-(methyloxy)-2-pyridinyl)-N-(4-((3-(2-((3-(1-pyrrolidinyl)propyl)amino)-4-pyrimidinyl)-2-pyridinyl)oxy)phenyl)-1-phthalazinamine] | ≤ 100 | ≤ 100 | – | – |
| CCc1cc(-c2ccccc2)nnc1Nc1ccc(Oc2ncccc2-c2ccnc(NCCCN3CCN(C)CC3)n2)cc1 [compound 456, 4-ethyl-N-(4-((3-(2-((3-(4-methyl-1-piperazinyl)propyl)amino)-4-pyrimidinyl)-2-pyridinyl)oxy)phenyl)-6-phenyl-3-pyridazinamine] | ≤ 100 | ≤ 100 | – | – |
